Data reported in patent publication US8242166B2, “C(10) ethyl ester and C(10) cyclopropyl ester substituted taxanes” (Florida State University Research Foundation, Inc., priority 2008, dated 2012).
Where “and” joins values, the source holds several entries; their conditions need not be identical. Equal values may be shown once. Read-outs that look alike come from different tables or passages of the source.

Experiments:
[1] = test system: human SKMES lung carcinoma xenografts; experiment: SKMES xenograft study e82, i.v. q4d×4 (Example 21); type: in vivo, nude mice; conditions: 30 mg/kg i.v. q4d×4; five mice
[2] = test system: MX1 human tumor xenografts
[3] = test system: human HT29 colon carcinoma xenografts
[4] = test system: MX1 human tumor xenografts; experiment: MX1 xenograft study e220, i.v. q4d×4 (Example 18); conditions: for maximum group mean BW loss: on D19

## CCC(=O)O[C@H]1C(=O)[C@@]2(C)C([C@H](OC(=O)c3ccccc3)[C@]3(O)C[C@H](OC(=O)[C@H](O)[C@@H](NC(=O)OC4CCC4)c4cccs4)C(C)=C1C3(C)C)[C@]1(OC(C)=O)CO[C@@H]1C[C@@H]2O (stereo partly drawn) [Compound 19244]
[1]
  TFS: 3
  partial response: two
[2]; 7.5 mg/kg iv qd × 1
  % TGD: −3% and −2.64%
  Median TTE: 16.72 days
  T-C: -0.45 days
  activity (logrank test): nonsignificant activities
[2]; 7.5 mg/kg iv qd × 1, n=5
  CR (complete regression): 0
  NTR (non-treatment-related death): 0
  PR (partial regression): 0
  TFS (tumor-free survivor): 0
  TR (treatment-related death): 0
[2]; 15 mg/kg iv qd × 1
  % TGD: 83% and 83.42%
  Median TTE: 31.49 days
  T-C: 14.32 days
  activity (logrank test): nonsignificant activities
[2]; 15 mg/kg iv qd × 1, n=5
  CR (complete regression): 0
  NTR (non-treatment-related death): 0
  PR (partial regression): 0
  TFS (tumor-free survivor): 0
  TR (treatment-related death): 0
[2]; 30 mg/kg iv qd × 1
  % TGD: 235% and 235.44%
  MTV (n), Day 60: 0.00 (2) mm^3
  Median TTE: 57.59 days
  T-C: 40.42 days
  activity (logrank test): significant activity
[2]; 30 mg/kg iv qd × 1, n=5
  CR (complete regression): 4
  NTR (non-treatment-related death): 0
  PR (partial regression): 1
  TFS (tumor-free survivor): 2
  TR (treatment-related death): 0
  mice survived to D60: two
  transient CRs: 2
[3]; 30 mg/kg i.v. q4d×4, six mice
  LTTFS: 1
  regression responses: six
[4]; 7.5 mg/kg iv q4d × 4
  % TGD: 217.17%
  BW Nadir: −3.1% (19)
  MTV (n), Day 57: 0.00 (5) mm^3
  Median TTE: 57 days
  T-C: 39.03 days
  maximum group mean BW loss: 3.1%
[4]; 7.5 mg/kg iv q4d × 4, n=5
  CR (complete regression): 5
  NTR (non-treatment-related death): 0
  PR (partial regression): 0
  TFS (tumor-free survivor): 3
  TR (treatment-related death): 0
  transient CRs: 2
[4]; 15 mg/kg iv q4d × 4
  % TGD: 217.17%
  BW Nadir: −7.6% (19)
  MTV (n), Day 57: 0.00 (5) mm^3
  Median TTE: 57 days
  T-C: 39.03 days
  maximum group mean BW loss: 7.6%
[4]; 15 mg/kg iv q4d × 4, n=5
  CR (complete regression): 5
  NTR (non-treatment-related death): 0
  PR (partial regression): 0
  TFS (tumor-free survivor): 5
  TR (treatment-related death): 0
[4]; 30 mg/kg iv q4d × 4
  % TGD: 217.17%
  BW Nadir: −18.9% (19)
  MTV (n), Day 57: 0.00 (5) mm^3
  Median TTE: 57 days
  T-C: 39.03 days
  maximum group mean BW loss: 18.9%
[4]; 30 mg/kg iv q4d × 4, n=5
  CR (complete regression): 4
  NTR (non-treatment-related death): 0
  PR (partial regression): 1
  TFS (tumor-free survivor): 4
  TR (treatment-related death): 0

## CC(=O)O[C@@]12CO[C@@H]1C[C@H](O)[C@@]1(C)C(=O)[C@H](O)C3=C(C)[C@@H](OC(=O)[C@H](O)[C@@H](NC(=O)OC(C)(C)C)c4ccccc4)C[C@@](O)([C@@H](OC(=O)c4ccccc4)[C@H]21)C3(C)C [Docetaxel, docetaxel, reference compound]
[2]; 25 mg/kg iv qd × 1
  % TGD: 249.47%
  MTV (n), Day 60: 0.00 (3) mm^3
  Median TTE: 60 days
  T-C: 42.83 days
[2]; 25 mg/kg iv qd × 1, n=5
  CR (complete regression): 3
  NTR (non-treatment-related death): 0
  PR (partial regression): 0
  TFS (tumor-free survivor): 2
  TR (treatment-related death): 0
  mice survived to D60: Three
  transient CR: 1
[3]; 25 mg/kg q7d×3, six mice
  LTTFS: one
  PR responses: 4
[3]; mouse, in vivo
  Number of Death NTR: 0
  Number of Death TR: 0
[4]; 25 mg/kg iv qwk × 3
  % TGD: 217.17%
  BW Nadir: −10.9% (22)
  MTV (n), Day 57: 0.00 (5) mm^3
  Median TTE: 57 days
  T-C: 39.03 days
[4]; 25 mg/kg iv qwk × 3, n=5
  CR (complete regression): 5
  NTR (non-treatment-related death): 0
  PR (partial regression): 0
  TFS (tumor-free survivor): 5
  TR (treatment-related death): 0
